Values joined by “and” are separate entries in the source; they are usually repeats but may differ in a detail not shown here. Equal values may be shown once. Read-outs that look alike come from different tables or passages of the source.
Legend:
[1] = test system: NA reuptake in rat brain synaptosomes; assay: 3H-NA reuptake by rat brain synaptosomes; assay type: biochemical; conditions: 3H-NA 10 nM, rat brain synaptosomes; read-out: NA inhibition rate % IC50
Excerpt: At present, it is believed that absolute or relative deficiencies of the central monoamine neurotransmitters 5-hydroxytryptamine (5-HT), norepinephrine (NA) and dopamine (DA) are closely related to depression and anxiety.
Synaptosomes were separated using methods in literature to prepare brain synaptosomes. SD rats were rapidly decapitated with a small animal decapitator. After decapitation, brains were taken out quickly and precooled in an ice-water mixture, and the pia mater and vascular tissue were removed. Brain tissue was taken out. 10 times volume (ml/g) of 10 mM Tris HCl buffer (containing 0.32 M sucrose, pH 7.4) was added, an ultrasonic cell pulverizer was used for homogenization (maintaining at a low temperature), and the brain tissue was homogenized and centrifuged for 10 min (4° C., 1,000 g). After balanced centrifugation (1500 g, 10 min) at 4° C., precipitate was discarded, then supernatant was taken, and centrifugation (20000 g) was performed again for 30 min. The supernatant was discarded and the precipitate, i.e. crude extract of synaptic corpuscles, was retained. The precipitate was further suspended in 0.32 M cold sucrose solution and then carefully laid on 1.2 M and 0.8 M (10 ml each) cold sucrose gradient solutions which had been laid sequentially on the bottom of the tube, followed by balanced centrifugation (38000 g) at 4 °C for 60 min. A suspension band at the 0.8-1.2 M sucrose interface was carefully collected with a puncture needle, which was placed in 10 ml of 0.32 M cold sucrose solution and mixed well, and equilibrium centrifuged (20000 g) at 4 °C for 30 min. The precipitate was refined brain synaptosomes. […]
The percentage inhibition of isotope ligand binding by each compound was calculated according to the following equation: […]

[2] = Pharmacokinetics and absolute bioavailability in rats (LC-MS/MS); assay type: in vivo; conditions: rat; for MRT inf: read-out: MRT0-∞
Excerpt: A LC-MS/MS method for determination of compound I-5 and compound M2 in rat plasma was established through experiments to investigate the pharmacokinetic characteristics and absolute bioavailability of compounds in rats.
20 SPF-grade SD male rats (body weight 220±20 g), purchased from Beijing Vital River Laboratory Animal Technology Co., Ltd.
• Chromatographic column: waters BEH C18 1.7 μm; 2.1×100 mm Column • Internal standard: D-I-5 (deuterated compound I-5, with the following structural formula)
20 SD rats were randomly divided into 4 groups, with 5 rats in each group. […]
50 μL plasma was taken, 50 μL D-I-5 (20 ng/mL dissolved in acetonitrile) was added, the mixture was whirled for 30 s, then 100 μL acetonitrile was added; the mixture was fully whirled for 2 min, and was centrifuged at 4° C. at 12000 r/min for 3 min, 50 μL supernatant was taken, 50 μL aqueous solution was added for dilution, followed by whirling for Imin, and 4 μL sample was injected.
The mean plasma concentration-time curves of rats after oral intragastric administration and intravenous administration were respectively shown in FIGS. 8 and 9. Data were processed using DAS 3.0 pharmacokinetic software (Chinese Professional Committee of Mathematical Pharmacology, Shanghai, China), and statistical moment parameters of the non-compartmental model were calculated, Cmax and Tmax being measured values.

mice [3] = conditions: 10 mg/kg for 7 days; cited from earlier work
mice [4] = conditions: 10 mg/kg continuously for 7 days; cited from earlier work
mice [5] = conditions: mouse, in vivo; cited from earlier work
[6] = male, SD, plasma, po, intragastric administration 12.5 mg/kg, n = 5
[7] = male, SD, plasma, intravenous administration 2.5 mg/kg, n = 5
[8] = male, Sprague-Dawley (SD), plasma, po, intragastric administration 12.5 mg/kg, n = 5
[9] = male, Sprague-Dawley (SD), plasma, intravenous administration 2.5 mg/kg, n = 5

`CC(C)CNC(=O)/C=C/c1cc2c(c(C(F)(F)F)c1)OCO2` [Compound I-5] showed an IC50 [1] of 17.2 ± 1.59 nM, a bioavailability ([2]; male, SD, plasma, oral, absolute bioavailability, intragastric 12.5 mg/kg vs intravenous 2.5 mg/kg, read-out: F (bioavailability, %)) of 24.1% and an AUC(0-t) [2, 6] of 523 ± 433 ng·h/mL. For the same molecule, the Tmax [2, 6] was 21 min, the half-life [2, 6] was 55.8 ± 22.8 min and the C0 [2, 7] was 2050 ± 907 ng/mL. It also gave a half-life [2, 7] of 39.6 ± 4.2 min, a concentration at 0.08 h ([2]; male, SD, plasma, iv, 2.5 mg/kg, single intravenous 2.5 mg/kg, 0.08 h, read-out: Plasma concentration, Mean) of 1150 ng/mL and a concentration at 0.25 h ([2]; male, SD, plasma, iv, 2.5 mg/kg, single intravenous 2.5 mg/kg, 0.25 h, read-out: Plasma concentration, Mean) of 393 ng/mL. The concentration at 0.5 h ([2]; male, SD, plasma, iv, 2.5 mg/kg, single intravenous 2.5 mg/kg, 0.50 h) was 152 ng/mL, the concentration at 1 h ([2]; male, SD, plasma, iv, 2.5 mg/kg, single intravenous 2.5 mg/kg, 1 h, read-out: Plasma concentration, Mean) was 60.3 ng/mL and the concentration at 2 h ([2]; male, SD, plasma, iv, 2.5 mg/kg, single intravenous 2.5 mg/kg, 2 h) was 16.8 ng/mL. It also gave a concentration at 3 h ([2]; male, SD, plasma, iv, 2.5 mg/kg, single intravenous 2.5 mg/kg, 3 h) of 6.9 ng/mL, a concentration at 4 h ([2]; male, SD, plasma, iv, 2.5 mg/kg, single intravenous 2.5 mg/kg, 4 h, read-out: Plasma concentration, Mean) of 3 ng/mL and a concentration at 4 h ([2]; male, SD, plasma, iv, 2.5 mg/kg, single intravenous 2.5 mg/kg, 4 h, read-out: Plasma concentration, individual rats) of 3.01 ng/mL. The concentration at 0.08 h ([2]; male, SD, plasma, oral, 12.5 mg/kg, single intragastric 12.5 mg/kg, 0.08 h, read-out: Plasma concentration, Mean) was 118 ng/mL, the concentration at 0.25 h ([2]; male, SD, plasma, oral, 12.5 mg/kg, single intragastric 12.5 mg/kg, 0.25 h, read-out: Plasma concentration, Mean) was 367 ng/mL and the concentration at 0.5 h ([2]; male, SD, plasma, oral, 12.5 mg/kg, single intragastric 12.5 mg/kg, 0.50 h) was 334 ng/mL. The concentration at 1 h ([2]; male, SD, plasma, oral, 12.5 mg/kg, single intragastric 12.5 mg/kg, 1 h, read-out: Plasma concentration, Mean) was 266 ng/mL, the concentration at 2 h ([2]; male, SD, plasma, oral, 12.5 mg/kg, single intragastric 12.5 mg/kg, 2 h) was 109 ng/mL and the concentration at 3 h ([2]; male, SD, plasma, oral, 12.5 mg/kg, single intragastric 12.5 mg/kg, 3 h) was 44.4 ng/mL. It also gave a concentration at 4 h ([2]; male, SD, plasma, oral, 12.5 mg/kg, single intragastric 12.5 mg/kg, 4 h, read-out: Plasma concentration, Mean) of 15.3 ng/mL, a concentration at 6 h ([2]; male, SD, plasma, oral, 12.5 mg/kg, single intragastric 12.5 mg/kg, 6 h) of 6.6 ng/mL and a Cmax ([2]; male, SD, plasma, po, 12.5 mg/kg, intragastric administration 12.5 mg/kg, n = 5, read-out: Cmax) of 361 ± 258 ng/mL. For the same molecule, the AUC(0-inf) [2, 8] was 659 ± 371 ng·h/mL, the MRT inf [2, 8] was 69.6 ± 7.2 min and the AUC(0-inf) [2, 9] was 438 ± 139 ng·h/mL. The AUC(0-t) [2, 9] was 436 ± 138 ng·h/mL, the MRT inf [2, 9] was 22.2 ± 6.6 min and the “Plasma concentration, individual rats” value ([2]; single intragastric 12.5 mg/kg, 0.08 h) was 140 ng/mL and 3.59 ng/mL and 70.1 ng/mL and 214 ng/mL and 164 ng/mL. For the same molecule, the “Plasma concentration, individual rats” value ([2]; single intragastric 12.5 mg/kg, 0.25 h) was 706 ng/mL and 7.11 ng/mL and 371 ng/mL and 389 ng/mL and 361 ng/mL, the “Plasma concentration, individual rats” value ([2]; single intragastric 12.5 mg/kg, 0.50 h) was 735 ng/mL and 4.71 ng/mL and 416 ng/mL and 268 ng/mL and 246 ng/mL and the “Plasma concentration, individual rats” value ([2]; single intragastric 12.5 mg/kg, 1 h) was 450 ng/mL and BQL and 391 ng/mL and 92.3 ng/mL and 132 ng/mL. For the same molecule, the “Plasma concentration, individual rats” value ([2]; single intragastric 12.5 mg/kg, 2 h) was 224 ng/mL and BQL and 134 ng/mL and 35.8 ng/mL and 43.0 ng/mL, the “Plasma concentration, individual rats” value ([2]; single intragastric 12.5 mg/kg, 3 h) was 84.5 ng/mL and BQL and 58.4 ng/mL and 11.3 ng/mL and 23.6 ng/mL and the “Plasma concentration, individual rats” value ([2]; single intragastric 12.5 mg/kg, 4 h) was 27.3 ng/mL and BQL and 17.3 ng/mL and 10.7 ng/mL and 6.16 ng/mL. For the same molecule, the “Plasma concentration, individual rats” value ([2]; single intragastric 12.5 mg/kg, 6 h) was 5.64 ng/mL and BQL and 3.20 ng/mL and 5.66 ng/mL and 12.2 ng/mL, the “Plasma concentration, individual rats” value ([2]; single intragastric 12.5 mg/kg, 8 h) was “BOL and BQL (4×)” and the “Plasma concentration, individual rats” value ([2]; single intravenous 2.5 mg/kg, 0.08 h, 2.5 mg/kg) was 1750 ng/mL and 1150 ng/mL and 659 ng/mL and 865 ng/mL and 1350 ng/mL. The “Plasma concentration, individual rats” value ([2]; single intravenous 2.5 mg/kg, 0.25 h, 2.5 mg/kg) was 628 ng/mL and 247 ng/mL and 540 ng/mL and 260 ng/mL and 291 ng/mL, the “Plasma concentration, individual rats” value ([2]; single intravenous 2.5 mg/kg, 0.50 h, 2.5 mg/kg) was 243 ng/mL and 75.7 ng/mL and 225 ng/mL and 95.9 ng/mL and 120 ng/mL and the “Plasma concentration, individual rats” value ([2]; single intravenous 2.5 mg/kg, 1 h, 2.5 mg/kg) was 103 ng/mL and 24.9 ng/mL and 80.2 ng/mL and 52.0 ng/mL and 41.6 ng/mL. The “Plasma concentration, individual rats” value ([2]; single intravenous 2.5 mg/kg, 2 h, 2.5 mg/kg) was 25.1 ng/mL and 6.66 ng/mL and 19.3 ng/mL and 15.2 ng/mL and 17.7 ng/mL, the “Plasma concentration, individual rats” value ([2]; single intravenous 2.5 mg/kg, 3 h, 2.5 mg/kg) was 8.95 ng/mL and 2.49 ng/mL and 9.76 ng/mL and 5.45 ng/mL and 7.89 ng/mL and the “Plasma concentration, individual rats” value ([2]; single intravenous 2.5 mg/kg, 4 h, 2.5 mg/kg) was “BQL and 3.38 ng/mL and 2.60 ng/mL and 3.08 ng/mL”. The “Plasma concentration, individual rats” value ([2]; single intravenous 2.5 mg/kg, 6 h) was “BQL”, the “Plasma concentration, individual rats” value ([2]; single intravenous 2.5 mg/kg, 8 h) was “BQL” and the “immobility time of tail suspension in mice” value (mice [3]) was “significantly shorten the immobility time”. For the same molecule, the “reserpine-induced body temperature decrease and akinesia in mice, degree of eye closure” value (mice [4]) was “significantly antagonizing” and the “immobility time of forced swimming in mice” value (mice [5]) was “significantly shorten the immobility time”.

Reference: US20240217946A1, “ANTIDEPRESSANT AND ANXIOLYTIC SUBSTITUTED CINNAMAMIDE COMPOUND” (TASLY PHARMACEUTICAL GROUP CO., LTD., priority 2021, published 2024)
